Columns and labels:
SK-MEL-2 = experiment: NCI 60 cell line screen (Melanoma); format: cell-based, human; settings: for Growth percentage: SK-MEL-2, single dose 10 µM
UACC-62 = experiment: NCI 60 cell line screen (Melanoma); format: cell-based, human; settings: for Growth percentage: UACC-62, single dose 10 µM
NCI-H552 = experiment: NCI 60 cell line screen (Non-Small Cell Lung Cancer); format: cell-based, human; settings: for Growth percentage: NCI-H552, single dose 10 µM
UACC-257 = experiment: NCI 60 cell line screen (Melanoma); format: cell-based, human; settings: for Growth percentage: UACC-257, single dose 10 µM
PARP = experiment: Western blot in MCF-7 cells; format: cell-based, human; settings: MCF-7, 1 μM, vs vehicle
Experimental: (§1) MCF-7 cells were seeded at a density of 1 × 10^5 cells/flask (10 mL) in T25 flasks. After 48 h, whole cell lysates were prepared from untreated cells or cells treated with vehicle control (EtOH, 0.1% v/v) or selected compound 21l or 24 (1 μM). MCF-7 cells were harvested in Radioimmunoprecipitation assay buffer (RIPA) buffer supplemented with protease inhibitors (Roche Diagnostics), phosphatase inhibitor cocktail 2 (Sigma-Aldrich), and phosphatase inhibitor cocktail 3 (Sigma-Aldrich). Equal quantities of protein (as determined by a bicinchoninic acid assay (BCA assay) were resolved by SDS-PAGE (12%) followed by transfer to polyvinylidene fluoride PVDF membranes. Membranes were blocked in 5% bovine serum albumin/Tris-buffered saline with 0.1% Tween®20 Detergent (TBST) for 1 h. Membranes were incubated in the relevant primary antibodies at 4 °C overnight, washed with TBST, and incubated in horseradish peroxidase-conjugated secondary antibody for 1 h at rt and washed again. Western blot analysis was performed as described above using antibodies directed against Mcl-1 (1:1000) (Millipore), Bcl-2 [1:500] (Millipore), and PARP followed by incubation with a horseradish peroxidase-conjugated anti-mouse antibody (1:2000) (Promega, Madison, WI, USA). All blots were probed with anti-glyceraldehyde 3-phosphate dehydrogenase (GAPDH) antibody (1:5000) (Millipore) to confirm equal loading. Proteins were detected using enhanced chemiluminescent Western blot detection (Clarity Western ECL substrate) (Bio Rad) on the ChemiDoc MP System (Bio Rad). Experiments were performed on three independent occasions.

Bcl-2 = experiment: Western blot in MCF-7 cells; format: cell-based, human; settings: MCF-7, 1 μM
Experimental: as §1

Mcl-1 = experiment: Western blot in MCF-7 cells; format: cell-based, human; settings: MCF-7, 1 μM
Experimental: as §1

CAKI-1 = experiment: NCI 60 cell line screen (Renal Cancer); format: cell-based, human; settings: for Growth percentage: CAKI-1, single dose 10 µM
LOX IMV1 = experiment: NCI 60 cell line screen (Melanoma); format: cell-based, human; settings: for Growth percentage: LOX IMV1, single dose 10 µM
MCF-7 = experiment: NCI 60 cell line screen (Breast Cancer); format: cell-based, human; settings: for Growth percentage: MCF-7, single dose 10 µM
CCRF-CEM = experiment: NCI 60 cell line screen (Leukemia); format: cell-based, human; settings: for Growth percentage: single dose 10 µM
NCI/ADR-RES = experiment: NCI 60 cell line screen (Ovarian Cancer); format: cell-based, human; settings: for Growth percentage: single dose 10 µM
[1] = system: MCF-10A non-tumorigenic human mammary epithelial cells; experiment: toxicity evaluation, alamarBlue assay; format: cell-based; settings: 10 μM, 24 h
NCI-H23 = experiment: NCI 60 cell line screen (Non-Small Cell Lung Cancer); format: cell-based, human; settings: for Growth percentage: NCI-H23, single dose 10 µM
DU-145 = experiment: NCI 60 cell line screen (Prostate cancer); format: cell-based, human; settings: for Growth percentage: DU-145, single dose 10 µM
[2] = HPLC stability study in phosphate buffers; format: physicochemical; settings: pH 4, 24 h
Experimental: Stability studies for compounds 21l and 24 were performed by analytical HPLC using a Symmetry® column (C18, […], 4.6 × 150 mm), a Waters 2487 Dual Wavelength Absorbance detector, a Waters 1525 binary HPLC pump, and a Waters 717 plus Autosampler (Waters Corporation, Milford, MA, USA). Samples were detected at λ 254 nm using acetonitrile (70%)/water (30%) as the mobile phase over 15 min and a flow rate of 1 mL/min. Stock solutions of the compounds are prepared using 10 mg of compounds 21l and 24 in 10 mL of mobile phase (1 mg/mL). Phosphate buffers at the desired pH values (4, 7.4, and 9) were prepared following the British Pharmacopoeia monograph 2020. Then, 30 μL of stock solution was diluted with 1 mL of appropriate buffer, shaken, and injected immediately. Samples were withdrawn and analysed at time intervals of t = 0 min, 5 min, 30 min, 60 min, and hourly for 24 h.

SK-OV-3 = experiment: NCI 60 cell line screen (Ovarian Cancer); format: cell-based, human; settings: for Growth percentage: SK-OV-3, single dose 10 µM
SN12C = experiment: NCI 60 cell line screen (Renal Cancer); format: cell-based, human; settings: for Growth percentage: single dose 10 µM
NCI-H332M = experiment: NCI 60 cell line screen (Non-Small Cell Lung Cancer); format: cell-based, human; settings: for Growth percentage: single dose 10 µM
RPMI-8226 = experiment: NCI 60 cell line screen (Leukemia); format: cell-based, human; settings: for Growth percentage: RPMI-8226, single dose 10 µM
BT-549 = experiment: NCI 60 cell line screen (Breast Cancer); format: cell-based, human; settings: for Growth percentage: BT-549, single dose 10 µM
MCF-7 cells = experiment: cell cycle analysis, PI staining, flow cytometry; format: cell-based, human; settings: 1 μM
Experimental: The cells were collected by trypsinisation and centrifuged at 800× g for 15 min. Cells were washed twice with ice-cold phosphate-buffered saline (PBS) and fixed in ice-cold 70% ethanol overnight at −20 °C.

M14 = experiment: NCI 60 cell line screen (Melanoma); format: cell-based, human; settings: for Growth percentage: M14, single dose 10 µM
HCT-2998 = experiment: NCI 60 cell line screen (Colon Cancer); format: cell-based, human; settings: for Growth percentage: HCT-2998, single dose 10 µM

For `COc1ccc(C(c2cc(OC)c(OC)c(OC)c2)n2ccnc2)cc1O` (centres unmarked) [21l, 5-((1H-Imidazol-1-yl)(3,4,5-Trimethoxyphenyl)Methyl)-2-Methoxyphenol], which GI50 (SK-MEL-2; Homo sapiens, SK-MEL-2, NCI 5 dose assay) is on record?
The GI50 was 0.324 µM.

What about the Growth percentage (SK-MEL-2) of the same molecule?
The Growth percentage was 43.54%.

And the GI50 (UACC-62; Homo sapiens, UACC-62, NCI 5 dose assay)?
The GI50 was 0.668 µM.

What about the Growth percentage (UACC-62) of the same molecule?
The Growth percentage was 36.48%.

And the GI50 (NCI-H552; Homo sapiens, 60 cell, NCI-H552, NCI 5 dose assay)?
Its GI50 is 0.247 µM.

And the Growth percentage (NCI-H552)?
The Growth percentage was 12.12%.

What about the GI50 (UACC-257; Homo sapiens, UACC-257, NCI 5 dose assay) of the same molecule?
The GI50 was 1.44 µM.

And the Growth percentage (UACC-257)?
The Growth percentage was 37.75%.

And the “expression of full-length PARP (116 kDa)” value (PARP)?
The value was “significant reduction”.

And the “expression level of Bcl-2” value (Bcl-2)?
Its value is “no change”.

And the “expression level of Mcl-1” value (Mcl-1)?
The value was “no change”.

What about the Growth percentage (CAKI-1) of the same molecule?
The Growth percentage was 41.26%.

What about the GI50 (CAKI-1; Homo sapiens, CAKI-1, NCI 5 dose assay) of the same molecule?
Its GI50 is 0.681 µM.

And the GI50 (LOX IMV1; Homo sapiens, LOX IMV1, NCI 5 dose assay)?
The GI50 was 0.523 µM.

And the Growth percentage (LOX IMV1)?
The Growth percentage was 25.65%.

What about the GI50 (MCF-7; Homo sapiens, MCF7, MCF-7, NCI 5 dose assay) of the same molecule?
The GI50 was 0.339 µM.

And the Growth percentage (MCF-7)?
The Growth percentage was 18.38%.

What about the GI50 (CCRF-CEM; Homo sapiens, NCI 5 dose assay) of the same molecule?
Its GI50 is 0.289 µM.

And the Growth percentage (CCRF-CEM)?
The Growth percentage was 6.97%.

What about the GI50 (NCI/ADR-RES; Homo sapiens, NCI 5 dose assay) of the same molecule?
Its GI50 is 1.92 µM.

And the Growth percentage (NCI/ADR-RES)?
Its Growth percentage is 12.06%.

What about the cell death [1] of the same molecule?
The cell death was “approximately 50%”.

And the GI50 (NCI-H23; Homo sapiens, NCI-H23, NCI 5 dose assay)?
Its GI50 is 0.882 µM.

What about the Growth percentage (NCI-H23) of the same molecule?
The Growth percentage was 38.92%.

What about the Growth percentage (DU-145) of the same molecule?
Its Growth percentage is 12.91%.

What about the GI50 (DU-145; Homo sapiens, DU-145, NCI 5 dose assay) of the same molecule?
The GI50 was 0.407 µM.

And the “compound remaining (HPLC)” value [2]?
Its value is 90%.

And the GI50 (SK-OV-3; Homo sapiens, SK-OV-3, NCI 5 dose assay)?
The GI50 was 0.465 µM.

And the Growth percentage (SK-OV-3)?
The Growth percentage was 21.78%.

What about the GI50 (SN12C; Homo sapiens, NCI 5 dose assay) of the same molecule?
Its GI50 is 0.91 µM.

What about the Growth percentage (SN12C) of the same molecule?
The Growth percentage was 37.55%.

What about the GI50 (NCI-H332M; Homo sapiens, NCI 5 dose assay) of the same molecule?
The GI50 was 0.789 µM.

What about the Growth percentage (NCI-H332M) of the same molecule?
The Growth percentage was 48.23%.

And the GI50 (RPMI-8226; Homo sapiens, RPMI-8226, NCI 5 dose assay)?
The GI50 was 0.385 µM.

And the Growth percentage (RPMI-8226)?
The Growth percentage was 18.86%.

And the Growth percentage (BT-549)?
Its Growth percentage is -0.07%.

What about the GI50 (BT-549; Homo sapiens, BT-549, NCI 5 dose assay) of the same molecule?
The GI50 was 0.306 µM.

What about the “cells in the G2/M phase” value (MCF-7 cells; 24 h) of the same molecule?
Its value is 47%.

And the “cells undergoing apoptosis (sub-G1)” value (MCF-7 cells; 24 h)?
Its value is 15%.

What about the “cells in the G2/M phase” value (MCF-7 cells; 48 h) of the same molecule?
The value was 43%.

And the “cells undergoing apoptosis (sub-G1)” value (MCF-7 cells; 48 h)?
The value was 31%.

What about the “cells in the G2/M phase” value (MCF-7 cells; 72 h) of the same molecule?
Its value is 40%.

What about the “cells undergoing apoptosis (sub-G1)” value (MCF-7 cells; 72 h) of the same molecule?
The value was 37%.

What about the GI50 (M14; Homo sapiens, M14, NCI 5 dose assay) of the same molecule?
The GI50 was 0.18 µM.

And the Growth percentage (M14)?
Its Growth percentage is 0.91%.

What about the Growth percentage (HCT-2998) of the same molecule?
Its Growth percentage is 24.97%.

And the GI50 (HCT-2998; Homo sapiens, 60 cell, HCT-2998, NCI 5 dose assay)?
Its GI50 is 1.72 µM.

Which results are given for `COc1ccc(C(c2cc(OC)c(OC)c(OC)c2)N2CCCCC2)cc1` (centres unmarked) [26b, 1-((4-Methoxyphenyl)(3,4,5-Trimethoxyphenyl)Methyl)Piperidine]?
Growth percentage (SK-MEL-2): 22.02%; Growth percentage (UACC-62): 18.17%; Growth percentage (NCI-H552): 19.85%; Growth percentage (UACC-257): 54.88%; Growth percentage (CAKI-1): 29.22%; Growth percentage (LOX IMV1): 36.34%; Growth percentage (MCF-7): 23.57%; Growth percentage (CCRF-CEM): 29.91%; Growth percentage (NCI/ADR-RES): 23.95%; Growth percentage (NCI-H23): 59.28%; Growth percentage (DU-145): 64.18%; Growth percentage (SK-OV-3): 16.68%; Growth percentage (SN12C): 54.32%; Growth percentage (NCI-H332M): 47.90%; Growth percentage (RPMI-8226): 41.20%; Growth percentage (BT-549): 49.73%; Growth percentage (M14): 23.27%; Growth percentage (HCT-2998): 79.59%

Which results are given for `COc1ccc(C(c2cc(OC)c(OC)c(OC)c2)N2CCCC2)cc1` (centres unmarked) [25g]?
Growth percentage (SK-MEL-2): 55.67%; Growth percentage (UACC-62): 57.35%; Growth percentage (NCI-H552): 58.47%; Growth percentage (UACC-257): 74.57%; Growth percentage (CAKI-1): 77.46%; Growth percentage (LOX IMV1): 72.96%; Growth percentage (MCF-7): 64.09%; Growth percentage (CCRF-CEM): 71.21%; Growth percentage (NCI/ADR-RES): 69.39%; Growth percentage (NCI-H23): 85.27%; Growth percentage (DU-145): 103.12%; Growth percentage (SK-OV-3): 77.46%; Growth percentage (SN12C): 108.47%; Growth percentage (NCI-H332M): 87.51%; Growth percentage (RPMI-8226): 97.42%; Growth percentage (BT-549): 81.58%; Growth percentage (M14): 60.08%; Growth percentage (HCT-2998): 89.14%

— PMC7926793, “Synthesis and Biological Evaluation of 1-(Diarylmethyl)-1H-1,2,4-triazoles and 1-(Diarylmethyl)-1H-imidazoles as a Novel Class of Anti-Mitotic Agent for Activity in Breast Cancer” (Pharmaceuticals, 2021)
